Measurements from PubChem BioAssay (NCI).
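Cells were grown in 96-well plates and exposed to each compound for 48 hours at five concentrations; endpoints were interpolated linearly between bracketing concentrations, or set to the highest concentration if not reached. TGI denotes the concentration required for complete inhibition of growth.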

Key:
Test in all cases: DTP human tumour cell line panel, 48 h
[1] = tested on: A549 NSCLC
[2] = tested on: ACHN renal
[3] = tested on: CAKI-1 renal
[4] = tested on: CCRF-CEM leukemia
[5] = tested on: COLO 205 colon
[6] = tested on: DU-145 prostate
[7] = tested on: EKVX NSCLC
[8] = tested on: HCC-2998 colon
[9] = tested on: HCT-15 colon
[10] = tested on: HL-60(TB) leukemia
[11] = tested on: HOP-62 NSCLC
[12] = tested on: HOP-92 NSCLC
[13] = tested on: HS 578T breast
[14] = tested on: HT29 colon
[15] = tested on: IGROV1 ovarian
[16] = tested on: K-562 leukemia
[17] = tested on: KM12 colon
[18] = tested on: LOX IMVI melanoma
[19] = tested on: M14 melanoma
[20] = tested on: MCF7 breast
[21] = tested on: MDA-MB-231 breast
[22] = tested on: MDA-MB-435
[23] = tested on: MDA-N
[24] = tested on: MOLT-4 leukemia
[25] = tested on: NCI-H226 lung
[26] = tested on: NCI-H23 lung
[27] = tested on: NCI-H460 lung
[28] = tested on: NCI-H522 lung
[29] = tested on: OVCAR-3 ovarian
[30] = tested on: OVCAR-4 ovarian
[31] = tested on: OVCAR-5 ovarian
[32] = tested on: PC-3 prostate
[33] = tested on: RPMI-8226 leukemia
[34] = tested on: RXF 393 renal
[35] = tested on: SF-268 CNS
[36] = tested on: SF-295 CNS
[37] = tested on: SF-539 CNS
[38] = tested on: SK-MEL-2 melanoma
[39] = tested on: SK-MEL-28 melanoma
[40] = tested on: SK-MEL-5 melanoma
[41] = tested on: SK-OV-3 ovarian
[42] = tested on: SN12C renal
[43] = tested on: SNB-19 CNS
[44] = tested on: SNB-75 CNS
[45] = tested on: SR leukemia
[46] = tested on: SW-620 colon
[47] = tested on: T-47D breast
[48] = tested on: TK-10 renal
[49] = tested on: U251 CNS
[50] = tested on: UACC-257 melanoma
[51] = tested on: UACC-62 melanoma
[52] = tested on: UO-31 renal
[53] = tested on: 786-0 renal
[54] = tested on: HCT-116 colon
[55] = tested on: MALME-3M melanoma
[56] = tested on: NCI/ADR-RES ovarian
[57] = tested on: OVCAR-8 ovarian

COc1nc2ccc(COc3ccc(C(=O)NC(CCC(=O)O)C(=O)O)cc3)cc2nc1OC (stereo unspecified)
TGI [1]: > 10 µM | TGI [2]: > 10 µM | TGI [3]: > 10 µM | TGI [4]: > 10 µM | TGI [5]: > 10 µM | TGI [6]: > 10 µM | TGI [7]: > 10 µM | TGI [8]: > 10 µM | TGI [9]: > 10 µM | TGI [10]: > 10 µM | TGI [11]: > 10 µM | TGI [12]: > 10 µM | TGI [13]: > 10 µM | TGI [14]: > 10 µM | TGI [15]: > 10 µM | TGI [16]: > 10 µM | TGI [17]: > 10 µM | TGI [18]: > 10 µM | TGI [19]: > 10 µM | TGI [20]: > 10 µM | TGI [21]: > 10 µM | TGI [22]: > 10 µM | TGI [23]: > 10 µM | TGI [24]: > 10 µM | TGI [25]: > 10 µM | TGI [26]: > 10 µM | TGI [27]: > 10 µM | TGI [28]: > 10 µM | TGI [29]: > 10 µM | TGI [30]: > 10 µM | TGI [31]: > 10 µM | TGI [32]: > 10 µM | TGI [33]: > 10 µM | TGI [34]: > 10 µM | TGI [35]: > 10 µM | TGI [36]: > 10 µM | TGI [37]: > 10 µM | TGI [38]: > 10 µM | TGI [39]: > 10 µM | TGI [40]: > 10 µM | TGI [41]: > 10 µM | TGI [42]: > 10 µM | TGI [43]: > 10 µM | TGI [44]: > 10 µM | TGI [45]: > 10 µM | TGI [46]: > 10 µM | TGI [47]: > 10 µM | TGI [48]: > 10 µM | TGI [49]: > 10 µM | TGI [50]: > 10 µM | TGI [51]: > 10 µM | TGI [52]: > 10 µM

CCOP(=O)(OCC)C(C)(C)N(C)/C(F)=N/C(F)(F)F
TGI [53]: > 100 µM | TGI [1]: > 100 µM | TGI [2]: > 100 µM | TGI [3]: > 100 µM | TGI [4]: > 100 µM | TGI [5]: > 100 µM | TGI [6]: > 100 µM | TGI [7]: > 100 µM | TGI [8]: > 100 µM | TGI [54]: > 100 µM | TGI [9]: > 100 µM | TGI [10]: > 100 µM | TGI [11]: > 100 µM | TGI [12]: > 100 µM | TGI [13]: > 100 µM | TGI [14]: > 100 µM | TGI [15]: > 100 µM | TGI [16]: > 100 µM | TGI [17]: > 100 µM | TGI [18]: > 100 µM | TGI [19]: > 100 µM | TGI [55]: > 100 µM | TGI [20]: > 100 µM | TGI [21]: > 100 µM | TGI [22]: > 100 µM | TGI [23]: > 100 µM | TGI [24]: > 100 µM | TGI [25]: > 100 µM | TGI [26]: > 100 µM | TGI [27]: > 100 µM | TGI [56]: > 100 µM | TGI [29]: > 100 µM | TGI [30]: > 100 µM | TGI [31]: > 100 µM | TGI [57]: > 100 µM | TGI [32]: > 100 µM | TGI [33]: > 100 µM | TGI [35]: > 100 µM | TGI [36]: > 100 µM | TGI [37]: > 100 µM | TGI [38]: > 100 µM | TGI [39]: > 100 µM | TGI [40]: > 100 µM | TGI [41]: > 100 µM | TGI [42]: > 100 µM | TGI [44]: > 100 µM | TGI [45]: > 100 µM | TGI [46]: > 100 µM | TGI [47]: > 100 µM | TGI [48]: > 100 µM | TGI [49]: > 100 µM | TGI [50]: > 100 µM | TGI [51]: > 100 µM | TGI [52]: > 100 µM
